Assay results reported in patent publication US7488844B2, “Therapeutic agents” (AstraZeneca AB, priority 2001, dated 2009).

Biological target: T1, PPARγ (Homo sapiens, UniProt P37231)
T1 construct: expressed in transfected cells; host or cells: U2-OS (human osteogenic sarcoma), transient electroporation
T1 sequence (P37231 238-503 limits assumed): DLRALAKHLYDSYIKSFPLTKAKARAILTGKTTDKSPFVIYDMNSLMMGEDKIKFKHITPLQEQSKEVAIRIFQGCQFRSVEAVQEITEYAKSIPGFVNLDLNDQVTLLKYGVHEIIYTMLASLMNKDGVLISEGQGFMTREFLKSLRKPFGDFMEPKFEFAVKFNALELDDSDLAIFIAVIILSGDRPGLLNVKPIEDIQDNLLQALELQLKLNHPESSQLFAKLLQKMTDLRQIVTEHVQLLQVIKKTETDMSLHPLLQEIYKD
Test: GAL4-PPARγ ligand binding domain luciferase reporter transactivation in transiently transfected U2-OS cells
Format: cell-based
Conditions: selectivity PPARα over PPARγ
Protocol: The compounds of Examples 5-9 were tested in the assays described in WO03/051821.
Compounds were dissolved in DMSO to obtain 16 mM stock solutions. Before assays, stock solutions were further diluted in DMSO and culture media.
U2-OS, (Osteogenic sarcoma, Human) was purchased from ATCC, USA. Cells were expanded and refrozen in batches from passage number six. Cells were cultured in Dulbecco's modified Eagle medium (DMEM) with 25 mM glucose, 2 mM glutamin or 4 mM L-alanyl-L-glutamine, 10% fetal calf serum, at 5% CO2. Phosphate buffered saline (PBS) without addition of calcium or magnesium was used. All cell culture reagents were from Gibco (USA) and 96-well cell culture plates were purchased from Wallah.
Standard recombinant DNA techniques were carried out as described by Ausubel (7). The Luciferase reporter vector, pGL5UAS (clone consists of five copies of the GAL4 DNA binding sequence, 5′-[…]-3′, cloned into the SacI/XhoI sites of pGL3-Promoter (Promega). The SacI/XhoI fragment carrying the UAS sites was constructed using annealed overlapping oligonucleotides.
Expression vectors used are based upon pSG5 (Stratagene). All vectors contain an EcoRI/NheI fragment encoding the DNA binding domain of GAL4 (encoding amino acid positions 1-145 of database accession number P04386) followed by an in-frame fusion to a fragment encoding the nuclear localisation sequence from T antigen of Polyoma Virus.
The nuclear localisation sequence was constructed using annealed overlapping oligonucleotides creating NheI/KpnI sticky ends(5′-[…]-3′). The ligand binding domains from human and mouse PPARa and human and mouse PPARy were PCR amplified as KpnI/BamHI fragments and cloned in frame to the GAL4 DNA binding domain and the nuclear localisation sequence. The sequence of all plasmid constructs used were confirmed by sequencing. The following expression vectors were used for transient transfections:
Frozen stocks of cells from passage number six were thawed and expanded to passage number eight before transfections. […]

Structure (SMILES) | ratio EC50 (PPARγ): EC50 (PPARα)
CCO[C@@H](Cc1ccc(OCC(=O)N(Cc2ccc(Cl)cc2)Cc2ccc(Cl)cc2)cc1)C(=O)O [Example 22, (2S)-3-(4-{2-[bis(4-Chlorobenzyl)amino]-2-oxoethoxy}phenyl)-2-ethoxypropanoic acid] | >1000
CCO[C@@H](Cc1ccc(OCC(=O)N(Cc2ccc(Cl)cc2)Cc2ccc(C(C)(C)C)cc2)cc1)C(=O)O [Example 23, (2S)-3-(4-{2-[(4-tert-Butylbenzyl)(4-chlorobenzyl)amino]-2-oxoethoxy}phenyl)-2-ethoxypropanoic acid] | >400
CCO[C@@H](Cc1ccc(OCC(=O)N(Cc2ccc(C(F)(F)F)cc2)Cc2ccc(C(F)(F)F)cc2)cc1)C(=O)O [Example 25, (2S)-3-[4-(2-{bis[4-(Trifluoromethyl)benzyl]amino}-2-oxoethoxy)phenyl]-2-ethoxypropanoic acid] | >900
